In brackets after ≈: the same amount, converted by molar mass. Read-outs that look alike come from different tables or passages of the source.
Assays:
[1] = test system: Scytalidium hyalinum; experiment: Antifungal Activity Test 2: MIC by broth microdilution method (Alamar Blue); format: cell-based; conditions: Neoscytalidium hyalinum
Description: (§1) The minimum inhibitory concentration (MIC) was measured by a broth microdilution method. That is, RPMI1640 medium (Sigma-Aldrich) was buffered with 0.165 M morpholine propanesulfonic acid (MOPS, Wako Pure Chemical Industries, Ltd.) to pH 7.0, and a given amount of a solution of the drug in DMSO was added thereto to prepare 2-fold dilution series within the range of 0.00098-4 μg/mL. This was added to a 96-well microplate by 100 μL, a fungal inoculum solution (100 μL, final concentration of fungi to be added: 1.0×10^4 cells/mL) was added, and the mixture was cultured at 35° C. An Alamar Blue reagent was added in advance to the culture medium (final addition concentration: 10%) and, at the time point when the Alamar Blue reagent in the drug-free growth control group changed from blue to red, the culture was discontinued and the absorbance (differential optical density at 570 nm based on 590 nm served as reference) measured. The minimum concentration of the drug that inhibited the growth of the fungus in the growth control group by 80% or more was taken as MIC. The concentration to be MIC (MIC90) in 9 strains out of the 10 strains (90%) measured was determined.
Scytalidium hyalinum strain of clinical isolate available from CBS (Netherlands) was used. The fungus was pre-cultured in an SDA medium, 0.1% (w/v) Tween 80-containing sterile saline was added to give a suspension, which was filtered through gauze to collect arthrospore. This was suspended in 0.1% (w/v) Tween 80-containing sterile saline, and added to a 20% Alamar Blue-containing medium to 2×10^4 cells/mL to give a fungal inoculum solution.
(§2) Each drug was used after dissolving in DMSO (dimethyl sulfoxide).
The test method was the same as in the aforementioned antifungal activity test 1, and the minimum concentration of the drug that inhibited the growth of the fungus in the growth control group by 80% or more was taken as MIC. The MIC range of the 4 strains measured and the geometric mean (GM) of each drug were determined.

[2] = test system: Scytalidium dimidiatum; experiment: Antifungal Activity Test 1: MIC by broth microdilution method (Alamar Blue); format: cell-based; conditions: Neoscytalidium dimidiatum; for MIC: growth inhibited by 80% or more, read-out: MIC; for MIC90: concentration to be MIC in 9 strains out of the 10 strains (90%), read-out: MIC90
Description: Scytalidium dimidiatum strain of clinical isolate obtained by separation and identification from nail or stratum corneum of patients with superficial mycosis was used. The fungi pre-cultured on an SDA medium was suspended in 0.1% (w/v) Tween 80-containing sterile saline and the suspension was filtered through gauze to collect arthrospore. This was suspended in 0.1% (w/v) Tween 80-containing sterile saline, and added to a 20% Alamar Blue-containing medium to 2×10^4 cells/mL to give a fungal inoculum solution.
as §2, §1
Reference documents for measurement method: Takako Shinoda et al.: opinion proposed by Committee for Clinical Laboratory Standards of The Japanese Society for Medical Mycology (1995-1997), Method for antifungal susceptibility testing of filamentous fungus, Medical Mycology Journal, 40: 239-257, 1999. Clinical Laboratory Standards Institute/National Committee for Clinical Laboratory Standards. Reference method for broth dilution antifungal susceptibility testing of filamentous fungus. Approved Standard M38-A2. Wayne, Pa.: National Committee for Clinical Laboratory Standards, 2008. Test Results

[3] = clinical isolate CBS200.88, growth inhibited by 80% or more, read-out: MIC
[4] = clinical isolate CBS545.95, growth inhibited by 80% or more, read-out: MIC
[5] = clinical isolate CBS601.85, growth inhibited by 80% or more, read-out: MIC
[6] = clinical isolate CBS619.84, growth inhibited by 80% or more, read-out: MIC
[7] = geometric mean of the 4 strains measured, read-out: GM (geometric mean of MIC)
[8] = range of the 4 strains measured, read-out: MIC range

SMILES	MIC [1, 3] [mg/L]	MIC [1, 4] [mg/L]	MIC [1, 5] [mg/L]	MIC [1, 6] [mg/L]	MIC [1, 7] [mg/L]	MIC [1, 8] [mg/L]	MIC ([2]; clinical isolate 530129) [mg/L]	MIC ([2]; clinical isolate 530142) [mg/L]	MIC ([2]; clinical isolate 530251) [mg/L]	MIC ([2]; clinical isolate 530621) [mg/L]	MIC ([2]; clinical isolate 530633) [mg/L]	MIC ([2]; clinical isolate 530914) [mg/L]	MIC ([2]; clinical isolate 530946) [mg/L]	MIC ([2]; clinical isolate 530999) [mg/L]	MIC ([2]; clinical isolate 531581) [mg/L]	MIC ([2]; clinical isolate 531869) [mg/L]	MIC90 [2] [mg/L]
CCC(C)(C)c1ccc(CC(C)CN2C[C@@H](C)O[C@@H](C)C2)cc1 (some centres unmarked) [AMO, amorolfine]	2 (≈ 6.3 µM)	2 (≈ 6.3 µM)	2 (≈ 6.3 µM)	2 (≈ 6.3 µM)	2 (≈ 6.3 µM)	2 (≈ 6.3 µM)	0.5 (≈ 1.57 µM)	1 (≈ 3.15 µM)	2 (≈ 6.3 µM)	1 (≈ 3.15 µM)	0.5 (≈ 1.57 µM)	2 (≈ 6.3 µM)	1 (≈ 3.15 µM)	1 (≈ 3.15 µM)	0.5 (≈ 1.57 µM)	0.5 (≈ 1.57 µM)	2 (≈ 6.3 µM)
OC(Cn1cncn1)(Cn1cncn1)c1ccc(F)cc1F [FCZ, fluconazole]	> 4	> 4	2 (≈ 6.53 µM)	> 4	> 4	–	> 4	> 4	> 4	> 4	> 4	> 4	> 4	> 4	> 4	> 4	> 4
CCC(C)n1ncn(-c2ccc(N3CCN(c4ccc(OCC5COC(Cn6cncn6)(c6ccc(Cl)cc6Cl)O5)cc4)CC3)cc2)c1=O (centres unmarked) [ITZ, itraconazole]	> 4	> 4	0.016 (≈ 0.0227 µM)	> 4	> 4	–	> 4	> 4	> 4	> 4	> 4	> 4	> 4	> 4	> 4	> 4	> 4
CC(=O)N1CCN(c2ccc(OCC3COC(Cn4ccnc4)(c4ccc(Cl)cc4Cl)O3)cc2)CC1 (centres unmarked) [KCZ, ketoconazole]	2 (≈ 3.76 µM)	1 (≈ 1.88 µM)	0.031 (≈ 0.0583 µM)	2 (≈ 3.76 µM)	0.59 (≈ 1.11 µM)	0.031 to 2 (≈ 0.0583 to 3.76 µM)	4 (≈ 7.53 µM)	> 4	> 4	> 4	4 (≈ 7.53 µM)	> 4	> 4	> 4	> 4	2 (≈ 3.76 µM)	> 4
CN(C/C=C/C#CC(C)(C)C)Cc1cccc2ccccc12 [TBF, terbinafine]	0.25 (≈ 0.858 µM)	0.5 (≈ 1.72 µM)	1 (≈ 3.43 µM)	0.25 (≈ 0.858 µM)	0.42 (≈ 1.44 µM)	0.25 to 1 (≈ 0.858 to 3.43 µM)	0.5 (≈ 1.72 µM)	0.25 (≈ 0.858 µM)	0.5 (≈ 1.72 µM)	0.5 (≈ 1.72 µM)	0.25 (≈ 0.858 µM)	0.25 (≈ 0.858 µM)	1 (≈ 3.43 µM)	0.5 (≈ 1.72 µM)	0.5 (≈ 1.72 µM)	0.5 (≈ 1.72 µM)	0.5 (≈ 1.72 µM)
Clc1ccc(COC(Cn2ccnc2)c2ccc(Cl)cc2Cl)c(Cl)c1 (centres unmarked) [MCZ, miconazole]	0.5 (≈ 1.2 µM)	0.5 (≈ 1.2 µM)	0.063 (≈ 0.151 µM)	0.5 (≈ 1.2 µM)	0.3 (≈ 0.721 µM)	0.063 to 0.5 (≈ 0.151 to 1.2 µM)	1 (≈ 2.4 µM)	1 (≈ 2.4 µM)	1 (≈ 2.4 µM)	1 (≈ 2.4 µM)	0.5 (≈ 1.2 µM)	1 (≈ 2.4 µM)	1 (≈ 2.4 µM)	0.5 (≈ 1.2 µM)	0.5 (≈ 1.2 µM)	0.5 (≈ 1.2 µM)	1 (≈ 2.4 µM)

Compounds with a lower MIC [1, 3], results first:

MIC [1, 3] [mg/L]	MIC [1, 4] [mg/L]	MIC [1, 5] [mg/L]	MIC [1, 6] [mg/L]	MIC [1, 7] [mg/L]	MIC [1, 8] [mg/L]	MIC ([2]; clinical isolate 530129) [mg/L]	MIC ([2]; clinical isolate 530142) [mg/L]	MIC ([2]; clinical isolate 530251) [mg/L]	MIC ([2]; clinical isolate 530621) [mg/L]	MIC ([2]; clinical isolate 530633) [mg/L]	MIC ([2]; clinical isolate 530914) [mg/L]	MIC ([2]; clinical isolate 530946) [mg/L]	MIC ([2]; clinical isolate 530999) [mg/L]	MIC ([2]; clinical isolate 531581) [mg/L]	MIC ([2]; clinical isolate 531869) [mg/L]	MIC90 [2] [mg/L]	SMILES
0.13 (≈ 0.377 µM)	0.13 (≈ 0.377 µM)	0.13 (≈ 0.377 µM)	0.25 (≈ 0.725 µM)	0.15 (≈ 0.435 µM)	0.13 to 0.25 (≈ 0.377 to 0.725 µM)	0.5 (≈ 1.45 µM)	0.5 (≈ 1.45 µM)	0.25 (≈ 0.725 µM)	0.5 (≈ 1.45 µM)	0.5 (≈ 1.45 µM)	0.5 (≈ 1.45 µM)	0.5 (≈ 1.45 µM)	0.25 (≈ 0.725 µM)	0.25 (≈ 0.725 µM)	0.25 (≈ 0.725 µM)	0.5 (≈ 1.45 µM)	Clc1ccccc1C(c1ccccc1)(c1ccccc1)n1ccnc1 [CTZ, clotrimazole]
0.13 (≈ 0.372 µM)	0.063 (≈ 0.18 µM)	0.016 (≈ 0.0458 µM)	0.13 (≈ 0.372 µM)	0.064 (≈ 0.183 µM)	0.016 to 0.13 (≈ 0.0458 to 0.372 µM)	0.25 (≈ 0.716 µM)	0.25 (≈ 0.716 µM)	0.13 (≈ 0.372 µM)	0.25 (≈ 0.716 µM)	0.25 (≈ 0.716 µM)	0.25 (≈ 0.716 µM)	0.25 (≈ 0.716 µM)	0.13 (≈ 0.372 µM)	0.25 (≈ 0.716 µM)	0.13 (≈ 0.372 µM)	0.25 (≈ 0.716 µM)	C[C@@H](c1ncncc1F)[C@](O)(Cn1cncn1)c1ccc(F)cc1F [VCZ, voriconazole]
0.063 (≈ 0.203 µM)	0.063 (≈ 0.203 µM)	0.031 (≈ 0.0999 µM)	0.13 (≈ 0.419 µM)	0.063 (≈ 0.203 µM)	0.031 to 0.13 (≈ 0.0999 to 0.419 µM)	0.25 (≈ 0.805 µM)	0.13 (≈ 0.419 µM)	0.25 (≈ 0.805 µM)	0.25 (≈ 0.805 µM)	0.13 (≈ 0.419 µM)	0.13 (≈ 0.419 µM)	0.25 (≈ 0.805 µM)	0.13 (≈ 0.419 µM)	0.25 (≈ 0.805 µM)	0.13 (≈ 0.419 µM)	0.25 (≈ 0.805 µM)	c1ccc(-c2ccc(C(c3ccccc3)n3ccnc3)cc2)cc1 (centres unmarked) [BFZ, bifonazole]
0.002 (≈ 0.00625 µM)	0.00098 (≈ 0.00306 µM)	0.00024 (≈ 0.00075 µM)	0.002 (≈ 0.00625 µM)	0.00098 (≈ 0.00306 µM)	0.00024 to 0.002 (≈ 0.00075 to 0.00625 µM)	0.0039 (≈ 0.0122 µM)	0.002 (≈ 0.00625 µM)	0.0039 (≈ 0.0122 µM)	0.0039 (≈ 0.0122 µM)	0.0039 (≈ 0.0122 µM)	0.0039 (≈ 0.0122 µM)	0.0039 (≈ 0.0122 µM)	0.002 (≈ 0.00625 µM)	0.0039 (≈ 0.0122 µM)	0.002 (≈ 0.00625 µM)	0.0039 (≈ 0.0122 µM)	N#C/C(=C1/SCC(c2ccccc2Cl)S1)n1ccnc1 (centres unmarked) [LCZ, [4-(2-chlorophenyl)-1,3-dithioran-2-ylidene](1H-imidazol-1-yl)acetonitrile]
0.00098 (≈ 0.00277 µM)	0.00098 (≈ 0.00277 µM)	0.00012 (≈ 0.000339 µM)	0.00098 (≈ 0.00277 µM)	0.00058 (≈ 0.00164 µM)	0.00012 to 0.00098 (≈ 0.000339 to 0.00277 µM)	0.002 (≈ 0.00565 µM)	0.002 (≈ 0.00565 µM)	0.002 (≈ 0.00565 µM)	0.002 (≈ 0.00565 µM)	0.002 (≈ 0.00565 µM)	0.002 (≈ 0.00565 µM)	0.002 (≈ 0.00565 µM)	0.002 (≈ 0.00565 µM)	0.002 (≈ 0.00565 µM)	0.00098 (≈ 0.00277 µM)	0.002 (≈ 0.00565 µM)	N#C/C(=C1/SC[C@@H](c2ccc(Cl)cc2Cl)S1)n1ccnc1 [LLCZ, (−)-(E)-[(4R)-(2,4-dichlorophenyl)-1,3-dithioran-2-ylidene](1H-imidazol-1-yl)acetonitrile]

Reference: patent publication US9040573B2, “Anti-fungal agent” (Nihon Nohyaku Co., Ltd., priority 2011, dated 2015)
